Laboratory results as given in patent US20250281464A1, “TREATMENT OF PATHOGENIC NEISSERIA SP. INFECTION WITH TRIAZOLE ANTIFUNGAL AGENTS” (Virginia Tech Intellectual Properties, Inc., priority 2022, published 2025).
Values after ≈ are worked out from the molar mass of the structure shown. Where two headings read alike, the source gives them in different places.

What was measured:
[1] = test system: Bifidobacterium angulatum; test: MIC against normal gut microbiota; format: cell-based; details: Bifidobacterium angulatum (1 strain)
Description: (§1) Disrupting the intestinal microbiota using broad-spectrum antimicrobial therapy increases the susceptibility of hosts to C. difficile colonization.

Staphylococcus aureus = test: MIC against normal gut microbiota; format: cell-based; details: Staphylococcus aureus (1 strain)
Description: as §1

Escherichia coli = test: MIC against normal gut microbiota; format: cell-based; details: Escherichia coli (1 strain)
Description: as §1

Lactobacillus casei = test: MIC against normal gut microbiota; format: cell-based; details: Lactobacillus casei (1 strain)
Description: as §1

Bacteroides dorei = test: MIC against normal gut microbiota; format: cell-based; details: Bacteroides dorei (2 strains)
Description: as §1

Lactobacillus rhamnosus = test: MIC against normal gut microbiota; format: cell-based; details: Lactobacillus rhamnosus (1 strain)
Description: as §1

Bacteroides fragilis = test: MIC against normal gut microbiota; format: cell-based; details: Bacteroides fragilis (4 strains)
Description: as §1

Enterococcus faecalis = test: MIC against normal gut microbiota; format: cell-based; details: Enterococcus faecalis (1 strain)
Description: as §1

[2] = MIC against normal gut microbiota; format: cell-based
Description: as §1

Lactobacillus brevis = test: MIC against normal gut microbiota; format: cell-based; details: Lactobacillus brevis (1 strain)
Description: as §1

Enterococcus faecium = test: MIC against normal gut microbiota; format: cell-based; details: Enterococcus faecium (1 strain)
Description: as §1

N. gonorrhoeae = test: Post-antibiotic effect (PAE) against N. gonorrhoeae; format: cell-based, Neisseria gonorrhoeae; details: 1 h exposure at 10×MIC
Description: Determining the PAE of a new antimicrobial is an important step for dosing and has clinical importance.

N. meingitidis = test: MIC against Neisseria spp.; format: cell-based, Neisseria meningitidis; details: N. meingitidis (5 strains)
L. gasseri = test: MIC against commensal vaginal Lactobacillus strains; format: cell-based, Lactobacillus gasseri; details: for MIC: Lactobacillus gasseri; for MIC Range: Table 6, L. gasseri (4 strains)
Description: (§2) N. gonorrhoeae pathogenesis greatly depends on colonization of the reproductive tract. One of the natural barriers of such colonization is an intact healthy microbiome. Species of lactobacilli present in the genitourinary tract play a significant role in hindering colonization by Neisseria(1).
(§3) A healthy vaginal microbiome that is dominated by Lactobacillus spp. is less susceptible to N. gonorrhoeae infection and other sexually transmitted diseases (STDs). […] We tested the activity of azoles against important members of healthy vaginal microbiota that inhibit N. gonorrhoeae colonization.

L. jensenii = test: as above; format: cell-based, Lactobacillus jensenii; details: for MIC: Lactobacillus jensenii; for MIC Range: Table 6, L. jensenii (7 strains)
Description: as §2, §3

L. johnsonii = test: as above; format: cell-based, Lactobacillus johnsonii; details: for MIC Range: Table 6, L. johsonii (2 strains)
Description: as §2, §3

L. crispatus = test: as above; format: cell-based, Lactobacillus crispatus; details: for MIC: Lactobacillus crispatus; for MIC Range: Table 6, L. crispatus (3 strains)
Description: as §2, §3

N. lactamica = test: MIC against Neisseria spp.; format: cell-based; details: N. lactamica (1 strain)
Description: (§4) Intrigued by the specificity and potent activity of azoles against N. gonorrhoeae, we evaluated the extent of the azoles' antibacterial activity against other Neisseria species (Table 8).

N. mucosa = test: MIC against Neisseria spp.; format: cell-based; details: N. mucosa (1 strain)
Description: as §4

N. flavescens = test: MIC against Neisseria spp.; format: cell-based; details: N. flavescens (1 strain)
Description: as §4

N. gonorrhoeae isolates = test: MIC against panel of N. gonorrhoeae clinical isolates; format: cell-based, Neisseria gonorrhoeae
[3] = test system: commensal vaginal lactobacilli strains; test: MIC against all commensal vaginal Lactobacillus strains tested; format: cell-based, Lactobacillus spp.; details: Lactobacillus
Description: as §2, §3

[4] = Bacteroides adolescentis (2 strains)
[5] = Table 1, 104 N. gonorrhoeae isolates
[6] = Table 3, 103 N. gonorrhoeae isolates with different resistance profiles

## CCC(C)n1ncn(-c2ccc(N3CCN(c4ccc(OCC5COC(Cn6cncn6)(c6ccc(Cl)cc6Cl)O5)cc4)CC3)cc2)c1=O (stereo not drawn) [Itraconazole]
[1]
  MIC Range: >256 µg/mL
Staphylococcus aureus
  MIC Range: >256 µg/mL
Escherichia coli
  MIC Range: >256 µg/mL
Lactobacillus casei
  MIC Range: >256 µg/mL
Bacteroides dorei
  MIC Range: >256 µg/mL
Lactobacillus rhamnosus
  MIC Range: >256 µg/mL
Bacteroides fragilis
  MIC Range: >256 µg/mL
Enterococcus faecalis
  MIC Range: >256 µg/mL
[2]; [4]
  MIC Range: >256 µg/mL
[2]; Bacteroides breve (2 strains)
  MIC Range: >256 µg/mL
[2]; Bacteroides longum (2 strains)
  MIC Range: >256 µg/mL
Lactobacillus brevis
  MIC Range: >256 µg/mL
Enterococcus faecium
  MIC Range: >256 µg/mL
N. gonorrhoeae; strain FA 1090
  PAE: 4 h
N. gonorrhoeae; strain WHO P
  PAE: 4 h
N. gonorrhoeae; strain WHO Y
  PAE: 4 h
N. meingitidis
  MIC Range: 0.125 to 1 µg/mL
L. gasseri; L. gasseri HM-407
  MIC: > 256 µg/mL
L. gasseri; L. gasseri HM-642
  MIC: > 256 µg/mL
L. gasseri; L. gasseri HM-644
  MIC: > 256 µg/mL
L. gasseri; L. gasseri HM-647
  MIC: > 256 µg/mL
L. gasseri
  MIC Range: ≥256 µg/mL
L. jensenii; L. jensenii HM-105
  MIC: > 256 µg/mL
L. jensenii; L. jensenii HM-372
  MIC: > 256 µg/mL
L. jensenii; L. jensenii HM-374
  MIC: > 256 µg/mL
L. jensenii; L. jensenii HM-639
  MIC: > 256 µg/mL
L. jensenii; L. jensenii HM-640
  MIC: > 256 µg/mL
L. jensenii; L. jensenii HM-645
  MIC: > 256 µg/mL
L. jensenii; L. jensenii HM-646
  MIC: > 256 µg/mL
L. jensenii
  MIC Range: ≥256 µg/mL
L. johnsonii; Lactobacillus johnsonii, L. johnsonii HM-643
  MIC: > 256 µg/mL
L. johnsonii
  MIC Range: ≥256 µg/mL
L. crispatus; L. crispatus HM-103
  MIC: > 256 µg/mL
L. crispatus; L. crispatus HM-371
  MIC: > 256 µg/mL
L. crispatus; L. crispatus HM-638
  MIC: > 256 µg/mL
L. crispatus
  MIC Range: ≥256 µg/mL
N. lactamica
  MIC Range: 4 µg/mL (≈ 5.67 µM)
N. mucosa
  MIC Range: 64 µg/mL (≈ 90.7 µM)
N. flavescens
  MIC Range: 64 µg/mL (≈ 90.7 µM)
N. gonorrhoeae isolates; Neisseria gonorrhoeae, Table 1, 104 N. gonorrhoeae isolates, read-out: MIC50
  MIC50: 1 µg/mL (≈ 1.42 µM)
N. gonorrhoeae isolates; Neisseria gonorrhoeae, Table 1, 104 N. gonorrhoeae isolates, read-out: MIC90
  MIC90: 2 µg/mL (≈ 2.83 µM)
N. gonorrhoeae isolates; Neisseria gonorrhoeae, Table 3, 103 N. gonorrhoeae isolates with different resistance profiles, read-out: MIC50
  MIC50: 1 µg/mL (≈ 1.42 µM)
N. gonorrhoeae isolates; Neisseria gonorrhoeae, Table 3, 103 N. gonorrhoeae isolates with different resistance profiles, read-out: MIC90
  MIC90: 2 µg/mL (≈ 2.83 µM)
N. gonorrhoeae isolates; [5]
  MIC Range: 0.03 to 4 µg/mL
N. gonorrhoeae isolates; [6]
  MIC Range: 0.03 to 8 µg/mL

## C[C@@H]1CN2c3c(cc4c(N5C(=O)OC[C@@H]5C)noc4c3F)CC3(C(=O)NC(=O)NC3=O)[C@H]2[C@H](C)O1 [Zoliflodacin]
[1]
  MIC Range: 1 µg/mL (≈ 2.05 µM)
Staphylococcus aureus
  MIC Range: 0.125 µg/mL (≈ 0.256 µM)
Escherichia coli
  MIC Range: 0.25 µg/mL (≈ 0.513 µM)
Lactobacillus casei
  MIC Range: <0.125 µg/mL
Bacteroides dorei
  MIC Range: 0.5 to 1 µg/mL
Lactobacillus rhamnosus
  MIC Range: 0.125 µg/mL (≈ 0.256 µM)
Bacteroides fragilis
  MIC Range: 2 to 8 µg/mL
Enterococcus faecalis
  MIC Range: 0.5 µg/mL (≈ 1.03 µM)
[2]; [4]
  MIC Range: 1 µg/mL (≈ 2.05 µM)
[2]; Bacteroides breve (2 strains)
  MIC Range: 4 µg/mL (≈ 8.21 µM)
[2]; Bacteroides longum (2 strains)
  MIC Range: 1 to 2 µg/mL
Lactobacillus brevis
  MIC Range: 1 µg/mL (≈ 2.05 µM)
Enterococcus faecium
  MIC Range: 2 µg/mL (≈ 4.1 µM)
L. gasseri
  MIC Range: ≤1 µg/mL
L. jensenii
  MIC Range: ≤1 µg/mL
L. johnsonii
  MIC Range: ≤1 µg/mL
L. crispatus
  MIC Range: ≤1 µg/mL
N. gonorrhoeae isolates; Neisseria gonorrhoeae
  MIC50: 0.06 µg/mL (≈ 0.123 µM)
  MIC90: 0.125 µg/mL (≈ 0.256 µM)
N. gonorrhoeae isolates; [5]
  MIC Range: 0.004 to 0.5 µg/mL
N. gonorrhoeae isolates; [6]
  MIC50: 0.06 µg/mL (≈ 0.123 µM)
  MIC90: 0.125 µg/mL (≈ 0.256 µM)
  MIC Range: 0.004 to 0.25 µg/mL
[3]
  MIC: < 1 µg/mL
